Test results from patent publication US20240000721A1, “COMPOSITIONS FOR REDUCTION OF OXIDATIVE STRESS, IMPROVEMENT TO THE IMMUNE SYSTEM, PROMOTION OF HEALTHY CARTILAGE AND/OR ALLEVIATION OF PAIN ACCOMPANYING INFLAMMATORY DISEASES IN RUMINANTS” (DSM IP Assets B.V., priority 2018, published 2024).

Tested on: Brahman steers (Bos indicus)
Assay: Rumen metabolites in rumen fluid of fistulated Brahman steers, quantified by NMR
Format: in vivo
Details: for Dimethylsulfone in rumen fluid / Trimethylamine in rumen fluid: rumen fluid 3 h post feeding
Source text: Eight fistulated Brahman steers (Bos indicus) were randomly allocated to two groups (4 animals per group) and received a forage ad libitum diet (Rhode grass hay (Chloris […]), chemical composition: DM, 917 g/kg fresh matter; in g/kg of DM: OM, 806; CP, 169; NDF, 661; ADF, 359; ADL, 46; ash, 116 and GE 17.38 MJ/kg). […] Animals were adapted to the diet over a 21 d period. After that initial period, experimental animals were placed into individual pens in an animal house for the measurement of intakes (10 d) and were treated with cyclodextrin (2 g/100 kg LW) and molasses (60 mL/d). On the last 2 days animals were placed into open-circuit respiration chambers for collection of rumen samples. […] PDMN was provided to the animals mixed with molasses (60 mL/day, molasses were previously diluted in water: 1:4 water:molasses) and mixed with the hay at three different times: 0 h, 3 h and 5 h after the feed was offered. […] On days 20 and 21 of treatment both groups were placed in open-circuit respiration chambers for rumen fluid collection. Rumen fluid samples (approx. 60 mL per animal) were collected using a probe with 2 layers of cheesecloth through the cannula of the animal at 3 h post feeding, during confinement in respiration chambers to determine rumen metabolites.

[1] = 21 days treatment compared with control period

Compound | Dimethylsulfone in rumen fluid (1.6 g chloroform-CD/100 kg LW for 21 days, control period 21) [μmol/L rumen fluid] | Trimethylamine in rumen fluid (1.6 g chloroform-CD/100 kg LW for 21 days, control period 564) [μmol/L rumen fluid] | Effect on the methyl donor dimethylsulfone and triethylamine in rumen fluid (in words) [1] | Dimethylsulfone in rumen fluid (2.5 g PDMN/animal/day (10% on silicon dioxide) for 21 days, control period 20) [μmol/L rumen fluid] | Trimethylamine in rumen fluid (2.5 g PDMN/animal/day (10% on silicon dioxide) for 21 days, control period 334) [μmol/L rumen fluid] | Effect on dimethylsulfone and trimethylamine in rumen fluid (in words) [1] | Effect on dimethylsulfone and trimethylamine in rumen fluid (in words) (21 days treatment compared with control period, listed as propanediolediol mononitrate)
ClC(Cl)Cl [Chloroform, chloroform, reference compound] | 80 | 828 | statistically significant increase |  |  |  | 
O=[N+]([O-])OCCCO [PDMN, 1,3-propanediol mononitrate] |  |  |  | 113 | 1242 | statistically significant increase | particularly effective
